In US5962409A, “Somatostatin-analogous cyclic peptides with inhibitory activity on growth hormone” (priority 1995, dated 1999):

Legend:
[1] = system: 70 kDa complex (1 or 4 sub-type somatostatin receptors), GH 3 rat cell line; experiment: Displacement of radioiodinated 11-Tyr somatostatin-14 from somatostatin receptors, 70 kDa complex (gel electrophoresis/autoradiography); format: binding; details: 10^-6 M; auto-radiographies in electrophoresis
Experimental: (§1) The study of the binding of the peptides on somatostatin receptors has been carried out according to the displacement method which consists in replacing from the receptors the radioligand (11-Tyr radioiodinated somatostatin 14-) before electrophoretic analysis on a denaturant polyacrylaminde gel (Prevost et al. European J. Cancer, 11, 1589-1592,1993).
(§2) The biological activity was tested on rat and human cell lines, namely a GH 3 rat cell line established starting from a pituitary tumor with two 70 and 57 kDa receptors; MCF7 human cell line established starting from a pleural effusion of a breast carcinoma with two main 57 and 42 kDa receptors and human cell line established starting from a small cell carcinoma of the lung with a 57 kDa receptor.
(§3) The tested peptides were suspended in 0.1% acetic acid at the final concentration of 10 mM and stored at 4° C.
(§4) Tests were carried out at a 10^-6 M concentration.

[2] = system: 57 kDa complex (somatostatin receptor sub-type 2); experiment: Displacement of radioiodinated 11-Tyr somatostatin-14 from somatostatin receptors, 57 kDa complex (gel electrophoresis/autoradiography); format: binding, rat and human; details: 10^-6 M; auto-radiographies in electrophoresis
Experimental: as §1, §2, §3, §4

Row | displacement of the 57 kDa radioligand-receptor complex [2] | Compound | suppression of the 70 kDa radioligand-receptor complex [1]
1 |  | C[C@H](N)C(=O)NCC(=O)N[C@H]1CSSC[C@@H](C(=O)O)NC(=O)[C@H](CO)NC(=O)[C@H]([C@@H](C)O)NC(=O)[C@H](Cc2ccccc2)NC(=O)[C@H]([C@@H](C)O)NC(=O)[C@H](CCCCN)NC(=O)[C@H](Cc2c[nH]c3ccccc23)NC(=O)[C@H](Cc2ccccc2)NC(=O)[C@H](Cc2ccccc2)NC(=O)[C@H](CC(N)=O)NC(=O)[C@H](CCCCN)NC1=O [somatostatin-14] | suppressed
2 | not | Antarelix | 
